Numbers after ± are expanded uncertainties.
Details: Pendant drop shape

CCCCn1cc[n+](C)c1.N#CN=C=[N-] [1-butyl-3-methylimidazolium dicyanamide]
Details	surface tension liquid-gas [mN/m]
298.4 K	50.6 ± 0.7
307.9 K	50.3 ± 0.7
318.1 K	49.7 ± 0.7
328.4 K	48.6 ± 0.7
339 K	48.1 ± 0.7
342.9 K	47.5 ± 0.7

CCCCn1cc[n+](C)c1.N#C[S-] [1-butyl-3-methylimidazolium thiocyanate]
Details	surface tension liquid-gas [mN/m]
298.1 K	44.6 ± 0.7
308.2 K	43.5 ± 0.7
318.1 K	43 ± 0.6
328.3 K	42.4 ± 0.6
338.5 K	41.9 ± 0.6
342.9 K	41.6 ± 0.6

CCn1cc[n+](C)c1.N#C[C-](C#N)C#N [1-ethyl-3-methyl-1H-imidazolium tricyanomethanide]
Details	surface tension liquid-gas [mN/m]
298.3 K	51.1 ± 0.7
308.1 K	50.7 ± 0.7
317.9 K	49.9 ± 0.7
328 K	49.1 ± 0.7
338.9 K	48.5 ± 0.7
343 K	47.9 ± 0.7

CCn1cc[n+](C)c1.N#C[B-](C#N)(C#N)C#N [1-ethyl-3-methylimidazolium tetracyanoborate]
Details	surface tension liquid-gas [mN/m]
298.1 K	49.1 ± 0.7
307.8 K	48.3 ± 0.7
318 K	47.4 ± 0.7
328.7 K	46.6 ± 0.7
338.8 K	45.8 ± 0.7
343 K	45.4 ± 0.7

CCCCCCn1cc[n+](C)c1.N#CN=C=[N-] [1-hexyl-3-methylimidazolium dicyanamide]
Details	surface tension liquid-gas [mN/m]
298 K	43 ± 0.6
307.9 K	42.2 ± 0.6
318.4 K	41.6 ± 0.6
328.2 K	41 ± 0.6
338.5 K	40.5 ± 0.6
342.7 K	40.2 ± 0.6

CCCCCCn1cc[n+](C)c1.N#C[B-](C#N)(C#N)C#N [1-hexyl-3-methylimidazolium tetracyanoborate]
Details	surface tension liquid-gas [mN/m]
298.6 K	41.5 ± 0.6
308.4 K	40.8 ± 0.6
318 K	40 ± 0.6
328 K	39.2 ± 0.6
338.5 K	38.4 ± 0.6
342.9 K	38.2 ± 0.6

— the NIST ThermoML archive (doi:10.1016/j.fluid.2015.10.044)
